Assay results reported in patent publication US20050197350A1, “Novel quinoline, tetrahydroquinazoline, and pyrimidine derivatives and methods of treatment related to the use thereof” (TAISHO PHARMACEUTICAL CO., LTD., priority 2003, published 2005).
Read-outs that look alike come from different tables or passages of the source.

Tested on: MCH receptors
Assay: MCH receptor activity class (method not given)
[1] = class by percent of control at 10^-7 M or IC50
[2] = activity class per percent of control at 10^-7 M or IC50
[3] = class by percent of control at 10^−7 M or IC50
[4] = activity class 1-3: percent of control at 10^-7 M or IC50
[5] = MCH receptor, class by percent of control at 10^-7 M or IC50
[6] = class 1-3 by percent of control at 10^-7 M or IC50

| SMILES | class [1] | further results |
| --- | --- | --- |
| CN(C)c1cc(N[C@H]2CC[C@@H](NC(=O)/C=C/c3cccc([N+](=O)[O-])c3)CC2)nc2ccccc12 [compound 683] | 2 (Class 2: The value of percent of control at 10^−7 M was from 40% to 60% or the value of IC′50 was from 50 nM to 200 nM.) | – |
| CN(C)c1nc(N[C@H]2CC[C@@H](CNC(=O)CCc3ccccc3O)CC2)nc2c1CCCC2 [compound 1067] | – | class [2]: 3 (Class 3 The value of percent of control at 10^−7 M was more than 60% or the value of IC50 was more than 200 nM.) |
| COc1cc(C(=O)N[C@H]2CC[C@@H](Nc3nccc(N(C)C)n3)CC2)cc(OC)c1OC [compound 333] | 3 (Class 3 The value of percent of control at 10^−7 M was more than 60% or the value of IC50 was more than 200 nM.) | – |
| Cc1cc(N(C)C)nc(N[C@H]2CC[C@@H](NC(=O)c3ccc(Cl)cc3)CC2)n1 [compound 2986] | – | class [3]: 1 (Class 1: The value of percent of control at 10^−7 M was less than 40% or the value of IC50 was less than 50 nM.) |
| COc1ccc(CNC[C@H]2CC[C@@H](Nc3nc4c(c(N(C)C)n3)CCCC4)CC2)c(OC)c1OC [compound 1374] | 3 (Class 3 The value of percent of control at 10^−7 M was more than 60% or the value of IC50 was more than 200 nM.) | – |
| COc1ccc(F)c(CNC[C@H]2CC[C@@H](Nc3nc4c(c(N(C)C)n3)CCCC4)CC2)c1 [compound 1406] | 3 (Class 3 The value of percent of control at 10^−7 M was more than 60% or the value of IC50 was more than 200 nM.) | – |
| CN(C)c1nc(N[C@H]2CC[C@@H](NC(=O)Nc3c(Cl)c(Cl)cc(Cl)c3Cl)CC2)nc2c1CCCC2 [compound 1708] | – | class [4]: 3 (Class 3 The value of percent of control at 10^−7 M was more than 60% or the value of IC50 was more than 200 nM.) |
| CCCCCCCOc1ccc(NC(=O)N[C@H]2CC[C@@H](Nc3nc4c(c(N(C)C)n3)CCCC4)CC2)cc1 [compound 1891] | 3 (Class 3 The value of percent of control at 10^−7 M was more than 60% or the value of IC50 was more than 200 nM.) | – |
| Cc1cc(N(C)C)nc(N[C@H]2CC[C@@H](C(=O)NCc3ccc(Cl)cc3)CC2)n1 [Example 2580, cis-N-(4-chlorobenzyl)-4-{[4-(dimethylamino)-6-methylpyrimidin-2-yl]amino}cyclohexanecarboxamide] | – | class: 1 |
| Cc1cc(CNC[C@H]2CC[C@@H](Nc3nccc(N(C)C)n3)CC2)cc(C)c1O [compound 1261] | 1 (Class 1: The value of percent of control at 10^−7 M was less than 40% or the value of IC50 was less than 50 nM.) | – |
| Cc1cc(N(C)C)nc(N[C@H]2CC[C@@H](C(=O)NCc3ccccc3OC(F)(F)F)CC2)n1 [compound 2823, cis-4-{[4-(dimethylamino)-6-methylpyrimidin-2-yl]amino}-N-[2-(trifluoromethoxy)benzyl]cyclohexanecarboxamide] | – | class [3]: 1 (Class 1: The value of percent of control at 10^−7 M was less than 40% or the value of IC50 was less than 50 nM.) |
| CN(C)c1ccnc(N[C@H]2CC[C@@H](NC(=O)Cc3c[nH]c4ccccc34)CC2)n1 [compound 850] | 2 (Class 2: The value of percent of control at 10^−7 M was from 40% to 60% or the value of IC′50 was from 50 nM to 200 nM.) | – |
| Cc1ccc(C(=O)NC[C@H]2CC[C@@H](Nc3nc(C)cc(N(C)C)n3)CC2)cc1 [compound 2752] | – | class [3]: 3 (Class 3 The value of percent of control at 10^−7 M was more than 60% or the value of IC50 was more than 200 nM.) |
| CN(C)c1nc(N[C@H]2CC[C@@H](NC(=S)Nc3ccc(Br)cc3F)CC2)nc2c1CCCC2 [compound 1991] | – | class [5]: 3 (Class 3 The value of percent of control at 10^−7 M was more than 60% or the value of IC50 was more than 200 nM.) |
| CN(C)c1ccnc(N[C@H]2CC[C@@H](CNC(=O)/C=C/c3cccc([N+](=O)[O-])c3)CC2)n1 [compound 934] | 1 (Class 1: The value of percent of control at 10^−7 M was less than 40% or the value of IC50 was less than 50 nM.) | – |
| CN(C)c1nc(N[C@H]2CC[C@@H](NC(=O)CCc3ccc(Cl)c(Cl)c3)CC2)nc2c1CCCC2 [compound 974] | 3 (Class 3 The value of percent of control at 10^−7 M was more than 60% or the value of IC50 was more than 200 nM.) | – |
| CN(C)c1nc(N[C@H]2CC[C@@H](CNCc3cc(F)cc(C(F)(F)F)c3)CC2)nc2c1CCCC2 [compound 1440] | 3 (Class 3 The value of percent of control at 10^−7 M was more than 60% or the value of IC50 was more than 200 nM.) | – |
| CSc1ncccc1C(=O)NC[C@H]1CC[C@@H](Nc2nccc(N(C)C)n2)CC1 [compound 387] | 3 (Class 3 The value of percent of control at 10^−7 M was more than 60% or the value of IC50 was more than 200 nM.) | – |
| Cc1cc(C)c(C(=O)C(=O)N[C@H]2CC[C@@H](Nc3cc(N(C)C)c4ccccc4n3)CC2)c(C)c1 [compound 775, N-(cis-4-{[4-(dimethylamino)quinolin-2-yl]amino}cyclohexyl)-2-mesityl-2-oxoacetamide] | 2 (Class 2: The value of percent of control at 10^−7 M was from 40% to 60% or the value of IC′50 was from 50 nM to 200 nM.) | – |

| SMILES | class [1] | further results |
| --- | --- | --- |
| CN(C)c1cc(N[C@H]2CC[C@@H](NC(=O)c3cc(Cl)ccc3O)CC2)nc2ccccc12 [compound 780, 5-chloro-N-(cis-4-{[4-(dimethylamino)quinolin-2-yl]amino}cyclohexyl)-2-hydroxybenzamide] | 2 (Class 2: The value of percent of control at 10^−7 M was from 40% to 60% or the value of IC′50 was from 50 nM to 200 nM.) | – |
| CC(=O)c1ccc(NC(=S)N[C@H]2CC[C@@H](Nc3nc4c(c(N(C)C)n3)CCCC4)CC2)cc1 [compound 1926] | – | class [5]: 3 (Class 3 The value of percent of control at 10^−7 M was more than 60% or the value of IC50 was more than 200 nM.) |
| CN(C)c1nc(N[C@H]2CC[C@@H](NC(=O)COc3cccc(Cl)c3)CC2)nc2c1CCCC2 [compound 569] | – | class [6]: 1 (Class 1: The value of percent of control at 10^−7 M was less than 40% or the value of IC50 was less than 50 nM.) |
| CN(C)c1nc(N[C@H]2CC[C@@H](NC(=O)c3ccc(F)c(C(F)(F)F)c3)CC2)nc2c1CCCC2 [compound 542] | – | class [6]: 1 (Class 1: The value of percent of control at 10^−7 M was less than 40% or the value of IC50 was less than 50 nM.) |
| CCC(C(=O)N[C@H]1CC[C@@H](Nc2nccc(N(C)C)n2)CC1)c1ccccc1 (relative stereo) [compound 284] | 3 (Class 3 The value of percent of control at 10^−7 M was more than 60% or the value of IC50 was more than 200 nM.) | – |
| CN(C)c1nc(N[C@H]2CC[C@@H](NC(=O)Nc3ccc(F)cc3[N+](=O)[O-])CC2)nc2c1CCCC2 [compound 1889] | 3 (Class 3 The value of percent of control at 10^−7 M was more than 60% or the value of IC50 was more than 200 nM.) | – |
| COc1cccc2cc(C(=O)N[C@H]3CC[C@@H](Nc4nc5c(c(N(C)C)n4)CCCC5)CC3)oc12 [compound 1057] | – | class [2]: 3 (Class 3 The value of percent of control at 10^−7 M was more than 60% or the value of IC50 was more than 200 nM.) |
| CC1=C(CC(=O)N[C@H]2CC[C@@H](Nc3nccc(N(C)C)n3)CC2)c2cc(F)ccc2/C1=C/c1ccc([S+](C)[O-])cc1 (relative stereo) [compound 883, N-(cis-4-{[4-(dimethylamino)pyrimidin-2-yl]amino}cyclohexyl)-2-{(1E)-5-fluoro-2-methyl-1-[4-(methylsulfinyl)benzylidene]-1H-inden-3-yl}acetamide] | 2 (Class 2: The value of percent of control at 10^−7 M was from 40% to 60% or the value of IC′50 was from 50 nM to 200 nM.) | – |
| Cc1c(C)c(C)c(CNC2CCC(Nc3nc4c(c(N(C)C)n3)CCCC4)CC2)c(C)c1C (centres unmarked) [compound 1485] | 2 (Class 2: The value of percent of control at 10^−7 M was from 40% to 60% or the value of IC′50 was from 50 nM to 200 nM.) | – |
| CCC(C(=O)NC[C@H]1CC[C@@H](Nc2cc(N(C)C)c3ccccc3n2)CC1)c1ccccc1 (relative stereo) [compound 193] | – | class [5]: 3 (Class 3 The value of percent of control at 10^−7 M was more than 60% or the value of IC50 was more than 200 nM.) |
| COc1ccc2ccccc2c1CN[C@H]1CC[C@@H](Nc2nccc(N(C)C)n2)CC1 [compound 1211] | 3 (Class 3 The value of percent of control at 10^−7 M was more than 60% or the value of IC50 was more than 200 nM.) | – |
| CN(C)c1nc(N[C@H]2CC[C@@H](NC(=S)NCc3cccc(F)c3)CC2)nc2c1CCCC2 [compound 2043] | – | class [5]: 3 (Class 3 The value of percent of control at 10^−7 M was more than 60% or the value of IC50 was more than 200 nM.) |
| CN(C)c1cc(NC2CCC(NC(=O)OCc3ccccc3)CC2)nc2ccccc12 (centres unmarked) [compound 1551] | – | class [4]: 3 (Class 3 The value of percent of control at 10^−7 M was more than 60% or the value of IC50 was more than 200 nM.) |
| CCCNC(=O)N[C@H]1CC[C@@H](Nc2nc3c(c(N(C)C)n2)CCCC3)CC1 [compound 1837] | 3 (Class 3 The value of percent of control at 10^−7 M was more than 60% or the value of IC50 was more than 200 nM.) | – |
| CN(C)c1cc(N[C@H]2CC[C@@H](NC(=O)Cc3cc(C(C)(C)C)c(O)c(C(C)(C)C)c3)CC2)nc2ccccc12 [compound 703] | 3 (Class 3 The value of percent of control at 10^−7 M was more than 60% or the value of IC50 was more than 200 nM.) | – |
| CN(C)c1nc(N[C@H]2CC[C@@H](CNC(=O)c3ccccc3Cc3ccccc3)CC2)nc2c1CCCC2 [compound 1072] | – | class [2]: 3 (Class 3 The value of percent of control at 10^−7 M was more than 60% or the value of IC50 was more than 200 nM.) |
| CC(C)[C@@H]1CC[C@@H](C)C[C@H]1OC(=O)N[C@H]1CC[C@@H](Nc2cc(N(C)C)c3ccccc3n2)CC1 [compound 1553] | – | class [4]: 3 (Class 3 The value of percent of control at 10^−7 M was more than 60% or the value of IC50 was more than 200 nM.) |
| COc1ccc2c(c1)C(CC(=O)N[C@H]1CC[C@@H](Nc3cc(N(C)C)c4ccccc4n3)CC1)CC2=O (relative stereo) [compound 713] | 3 (Class 3 The value of percent of control at 10^−7 M was more than 60% or the value of IC50 was more than 200 nM.) | – |
| Cc1sc(-c2ccccc2)nc1CC(=O)N[C@H]1CC[C@@H](Nc2nc3c(c(N(C)C)n2)CCCC3)CC1 [compound 987] | – | class [2]: 3 (Class 3 The value of percent of control at 10^−7 M was more than 60% or the value of IC50 was more than 200 nM.) |
